Assay results as given in ChEMBL document CHEMBL5724914, “Linking interpersonal differences in gut microbiota composition and drug biotransformation activity” (2024).

conditions: human gut metagenome, 24 h, 2 µM
Further: call rule not given here.

| Structure (SMILES) | Bacterial Biotransformation |
| --- | --- |
| COc1c(C)c2c(c(O)c1C/C=C(\C)CCC(=O)OCCN1CCOCC1)C(=O)OC2 [MYCOPHENOLATE MOFETIL] | Compound metabolized |
| CC(O)(CS(=O)(=O)c1ccc(F)cc1)C(=O)Nc1ccc(C#N)c(C(F)(F)F)c1 (stereo not given) [BICALUTAMIDE] | Compound NOT metabolized |

test: (§1) The drug is tested on WLS-039 corresponding to human gut metagenome with ENA study accession number: PRJEB37062 and ENA sample accession number: ERS12561746 for biotransformation under anaerobic condition. The drug concentrations were measured over 9 timepoints collected between 0 and 24 hours of incubation by liquid-chromatography-coupled mass spectrometry (LC–MS); conditions: 2 µM

| Structure (SMILES) | Bacterial Biotransformation |
| --- | --- |
| COc1c(C)c2c(c(O)c1C/C=C(\C)CCC(=O)OCCN1CCOCC1)C(=O)OC2 [MYCOPHENOLATE MOFETIL] | Compound metabolized |
| CC(O)(CS(=O)(=O)c1ccc(F)cc1)C(=O)Nc1ccc(C#N)c(C(F)(F)F)c1 (stereo not given) [BICALUTAMIDE] | Compound NOT metabolized |

conditions: human gut metagenome, 24 h, 2 µM; remark: another data set of the same source

| Structure (SMILES) | Bacterial Biotransformation |
| --- | --- |
| COc1c(C)c2c(c(O)c1C/C=C(\C)CCC(=O)OCCN1CCOCC1)C(=O)OC2 [MYCOPHENOLATE MOFETIL] | Compound metabolized |
| CC(O)(CS(=O)(=O)c1ccc(F)cc1)C(=O)Nc1ccc(C#N)c(C(F)(F)F)c1 (stereo not given) [BICALUTAMIDE] | Compound NOT metabolized |

test: as §1, with “WLS-052” for “WLS-039”, “ERS12561747” for “ERS12561746”; conditions: 2 µM

| Structure (SMILES) | Bacterial Biotransformation |
| --- | --- |
| COc1c(C)c2c(c(O)c1C/C=C(\C)CCC(=O)OCCN1CCOCC1)C(=O)OC2 [MYCOPHENOLATE MOFETIL] | Compound metabolized |
| CC(O)(CS(=O)(=O)c1ccc(F)cc1)C(=O)Nc1ccc(C#N)c(C(F)(F)F)c1 (stereo not given) [BICALUTAMIDE] | Compound NOT metabolized |

conditions: human gut metagenome, 24 h, 2 µM; remark: another data set of the same source

| Structure (SMILES) | Bacterial Biotransformation |
| --- | --- |
| COc1c(C)c2c(c(O)c1C/C=C(\C)CCC(=O)OCCN1CCOCC1)C(=O)OC2 [MYCOPHENOLATE MOFETIL] | Compound metabolized |
| CC(O)(CS(=O)(=O)c1ccc(F)cc1)C(=O)Nc1ccc(C#N)c(C(F)(F)F)c1 (stereo not given) [BICALUTAMIDE] | Compound NOT metabolized |

conditions: human gut metagenome, 24 h, 2 µM; remark: another data set of the same source

| Structure (SMILES) | Bacterial Biotransformation |
| --- | --- |
| COc1c(C)c2c(c(O)c1C/C=C(\C)CCC(=O)OCCN1CCOCC1)C(=O)OC2 [MYCOPHENOLATE MOFETIL] | Compound metabolized |
| CC(O)(CS(=O)(=O)c1ccc(F)cc1)C(=O)Nc1ccc(C#N)c(C(F)(F)F)c1 (stereo not given) [BICALUTAMIDE] | Compound NOT metabolized |

test: as §1, with “WLS-098” for “WLS-039”, “ERS12561754” for “ERS12561746”; conditions: 2 µM

| Structure (SMILES) | Bacterial Biotransformation |
| --- | --- |
| COc1c(C)c2c(c(O)c1C/C=C(\C)CCC(=O)OCCN1CCOCC1)C(=O)OC2 [MYCOPHENOLATE MOFETIL] | Compound metabolized |
| CC(O)(CS(=O)(=O)c1ccc(F)cc1)C(=O)Nc1ccc(C#N)c(C(F)(F)F)c1 (stereo not given) [BICALUTAMIDE] | Compound NOT metabolized |

test: as §1, with “WLS-027” for “WLS-039”, “ERS12561744” for “ERS12561746”; conditions: 2 µM

| Structure (SMILES) | Bacterial Biotransformation |
| --- | --- |
| COc1c(C)c2c(c(O)c1C/C=C(\C)CCC(=O)OCCN1CCOCC1)C(=O)OC2 [MYCOPHENOLATE MOFETIL] | Compound metabolized |
| CC(O)(CS(=O)(=O)c1ccc(F)cc1)C(=O)Nc1ccc(C#N)c(C(F)(F)F)c1 (stereo not given) [BICALUTAMIDE] | Compound NOT metabolized |

conditions: human gut metagenome, 24 h, 2 µM; remark: another data set of the same source

| Structure (SMILES) | Bacterial Biotransformation |
| --- | --- |
| COc1c(C)c2c(c(O)c1C/C=C(\C)CCC(=O)OCCN1CCOCC1)C(=O)OC2 [MYCOPHENOLATE MOFETIL] | Compound metabolized |
| CC(O)(CS(=O)(=O)c1ccc(F)cc1)C(=O)Nc1ccc(C#N)c(C(F)(F)F)c1 (stereo not given) [BICALUTAMIDE] | Compound NOT metabolized |

conditions: human gut metagenome, 24 h, 2 µM; remark: another data set of the same source

| Structure (SMILES) | Bacterial Biotransformation |
| --- | --- |
| COc1c(C)c2c(c(O)c1C/C=C(\C)CCC(=O)OCCN1CCOCC1)C(=O)OC2 [MYCOPHENOLATE MOFETIL] | Compound metabolized |
| CC(O)(CS(=O)(=O)c1ccc(F)cc1)C(=O)Nc1ccc(C#N)c(C(F)(F)F)c1 (stereo not given) [BICALUTAMIDE] | Compound NOT metabolized |

conditions: human gut metagenome, 24 h, 2 µM; remark: another data set of the same source

| Structure (SMILES) | Bacterial Biotransformation |
| --- | --- |
| COc1c(C)c2c(c(O)c1C/C=C(\C)CCC(=O)OCCN1CCOCC1)C(=O)OC2 [MYCOPHENOLATE MOFETIL] | Compound metabolized |
| CC(O)(CS(=O)(=O)c1ccc(F)cc1)C(=O)Nc1ccc(C#N)c(C(F)(F)F)c1 (stereo not given) [BICALUTAMIDE] | Compound NOT metabolized |

test: as §1, with “Z-021” for “WLS-039”, “to” for “to human gut”, “ERS12561820” for “ERS12561746”; conditions: 2 µM

| Structure (SMILES) | Bacterial Biotransformation |
| --- | --- |
| COc1c(C)c2c(c(O)c1C/C=C(\C)CCC(=O)OCCN1CCOCC1)C(=O)OC2 [MYCOPHENOLATE MOFETIL] | Compound metabolized |
| CC(O)(CS(=O)(=O)c1ccc(F)cc1)C(=O)Nc1ccc(C#N)c(C(F)(F)F)c1 (stereo not given) [BICALUTAMIDE] | Compound NOT metabolized |

test: as §1, with “Z-023” for “WLS-039”, “to” for “to human gut”, “ERS12561822” for “ERS12561746”; conditions: 2 µM

| Structure (SMILES) | Bacterial Biotransformation |
| --- | --- |
| COc1c(C)c2c(c(O)c1C/C=C(\C)CCC(=O)OCCN1CCOCC1)C(=O)OC2 [MYCOPHENOLATE MOFETIL] | Compound metabolized |
| CC(O)(CS(=O)(=O)c1ccc(F)cc1)C(=O)Nc1ccc(C#N)c(C(F)(F)F)c1 (stereo not given) [BICALUTAMIDE] | Compound NOT metabolized |

test: as §1, with “Z-011” for “WLS-039”, “mouse” for “human”, “ERS12561811” for “ERS12561746”; conditions: 2 µM

| Structure (SMILES) | Bacterial Biotransformation |
| --- | --- |
| COc1c(C)c2c(c(O)c1C/C=C(\C)CCC(=O)OCCN1CCOCC1)C(=O)OC2 [MYCOPHENOLATE MOFETIL] | Compound metabolized |
| CC(O)(CS(=O)(=O)c1ccc(F)cc1)C(=O)Nc1ccc(C#N)c(C(F)(F)F)c1 (stereo not given) [BICALUTAMIDE] | Compound NOT metabolized |

test: as §1, with “WLS-010” for “WLS-039”, “ERS12561743” for “ERS12561746”; conditions: 2 µM

| Structure (SMILES) | Bacterial Biotransformation |
| --- | --- |
| COc1c(C)c2c(c(O)c1C/C=C(\C)CCC(=O)OCCN1CCOCC1)C(=O)OC2 [MYCOPHENOLATE MOFETIL] | Compound metabolized |
| CC(O)(CS(=O)(=O)c1ccc(F)cc1)C(=O)Nc1ccc(C#N)c(C(F)(F)F)c1 (stereo not given) [BICALUTAMIDE] | Compound NOT metabolized |

test: as §1, with “Z-006” for “WLS-039”, “mouse” for “human”, “ERS12561806” for “ERS12561746”; conditions: 2 µM

| Structure (SMILES) | Bacterial Biotransformation |
| --- | --- |
| COc1c(C)c2c(c(O)c1C/C=C(\C)CCC(=O)OCCN1CCOCC1)C(=O)OC2 [MYCOPHENOLATE MOFETIL] | Compound metabolized |
| CC(O)(CS(=O)(=O)c1ccc(F)cc1)C(=O)Nc1ccc(C#N)c(C(F)(F)F)c1 (stereo not given) [BICALUTAMIDE] | Compound NOT metabolized |

test: as §1, with “Z-025” for “WLS-039”, “rabbit” for “human”, “ERS12561824” for “ERS12561746”; conditions: 2 µM

| Structure (SMILES) | Bacterial Biotransformation |
| --- | --- |
| COc1c(C)c2c(c(O)c1C/C=C(\C)CCC(=O)OCCN1CCOCC1)C(=O)OC2 [MYCOPHENOLATE MOFETIL] | Compound metabolized |
| CC(O)(CS(=O)(=O)c1ccc(F)cc1)C(=O)Nc1ccc(C#N)c(C(F)(F)F)c1 (stereo not given) [BICALUTAMIDE] | Compound NOT metabolized |

conditions: human gut metagenome, 24 h, 2 µM; remark: another data set of the same source

| Structure (SMILES) | Bacterial Biotransformation |
| --- | --- |
| COc1c(C)c2c(c(O)c1C/C=C(\C)CCC(=O)OCCN1CCOCC1)C(=O)OC2 [MYCOPHENOLATE MOFETIL] | Compound metabolized |
| CC(O)(CS(=O)(=O)c1ccc(F)cc1)C(=O)Nc1ccc(C#N)c(C(F)(F)F)c1 (stereo not given) [BICALUTAMIDE] | Compound NOT metabolized |

conditions: human gut metagenome, 24 h, 2 µM; remark: another data set of the same source

| Structure (SMILES) | Bacterial Biotransformation |
| --- | --- |
| COc1c(C)c2c(c(O)c1C/C=C(\C)CCC(=O)OCCN1CCOCC1)C(=O)OC2 [MYCOPHENOLATE MOFETIL] | Compound metabolized |
| CC(O)(CS(=O)(=O)c1ccc(F)cc1)C(=O)Nc1ccc(C#N)c(C(F)(F)F)c1 (stereo not given) [BICALUTAMIDE] | Compound NOT metabolized |

test: as §1, with “Z-022” for “WLS-039”, “mouse” for “human”, “ERS12561821” for “ERS12561746”; conditions: 2 µM

| Structure (SMILES) | Bacterial Biotransformation |
| --- | --- |
| COc1c(C)c2c(c(O)c1C/C=C(\C)CCC(=O)OCCN1CCOCC1)C(=O)OC2 [MYCOPHENOLATE MOFETIL] | Compound metabolized |
| CC(O)(CS(=O)(=O)c1ccc(F)cc1)C(=O)Nc1ccc(C#N)c(C(F)(F)F)c1 (stereo not given) [BICALUTAMIDE] | Compound NOT metabolized |
